{"source": "patent US12269859B2", "about": "“Synthetic immune receptors and methods of use thereof” (Angeles Therapeutics, Inc., priority 2016, dated 2025)", "key": {"RAJI cells [1]": {"tested_on": "RAJI cells", "assay": "RAJI xenograft model of lymphoma in NSG mice (survival)", "type": "in vivo", "procedure": "In vivo efficacy of SIR targeting CD19. […] SIR constructs and Gluc-PAC-G07 control construct encoding non-secretory form of Guassia Luciferase. Approximately half the cells were selected with puromycin while the other half was expanded without puromycin selection. NSG mice (Jackson Lab) were sub-lethally irradiated at a dose of 175 cGy. Approximately 24 hours post irradiation (day 2), mice were injected with 2.5×10^4 RAJI cells via tail-vein. […] Control mice (n=5) received no T cells or uninfected T cells. Mice were given human IL2 (400 IU intraperitoneally) on alternate days till the death of all mice in control group.\nApproximately half the cells were selected with puromycin while the other half was expanded without puromycin selection. NSG mice (Jackson Lab) were sub-lethally irradiated at a dose of 175 cGy. Approximately 24 hours post irradiation (day 2), mice were injected with 2.5×10^4 RAJI cells via tail-vein. […] Control mice (n=5) received no T cells or uninfected T cells. Mice were given human IL2 (400 IU intraperitoneally) on alternate days till the death of all mice in control group.\nSIR construct. NSG mice (Jackson Lab) were sub-lethally irradiated at a dose of 175 cGy. Approximately 24 hours post irradiation (day 2), mice were injected with 2.5×10^4 RAJI cells via tail-vein. […] SIR encoding lentivirus. Control mice (n=5) were injected with 5 million uninfected T cells or given no T cells.\nSIR constructs. […] SIR were included as controls. NSG mice (n=5) were sub-lethally irradiated at a dose of 175 cGy. 24 hours post irradiation (day 2), mice were injected with 2.5×10^4 RAJI cells via tail-vein. […] Mice were given human IL2 (400 IU i.p.) on alternate days till the death of all mice in control group.\nHuman peripheral blood T cells isolated using CD3 magnetic beads were infected with lentiviruses expressing the indicated SIR constructs targeting Lym1 and Lym2. On day 1, the NSG mice were sub-lethally irradiated at a dose of 175 cGy. 24 hours post irradiation (day 2), mice were injected with 25×10^3 Raji cells intravenously. On day 3, the mice were treated intravenously with 10 million indicated CAR-T cells. Beginning on day 4, mice were injected with human IL-2 i.p. at a dose of 400 IU/mice every alternate day after the injection CAR-T cells till the death of all mice in control group."}, "Protein L magnetic beads": {"tested_on": "Protein L magnetic beads", "assay": "Jurkat NFAT-GFP assay, coculture with Protein L magnetic beads", "type": "cell-based, human", "details": "coculture with Protein L beads for 18 hours", "description": "Use of Protein L microbeads and Protein L expressing cells for stimulation of SIR and CAR expressing cells. A number of Human cell-based artificial antigen-presenting cells for cancer immunotherapy have been described. One approach for ex vivo expansion of CAR^+ and SIR^+ T cells involves the use of irradiated artificial antigen presenting cells (aAPC) expressing the targeted tumor associated antigen (TAA). However, this approach requires that the aAPC be engineered to express each individual TAA. To overcome this problem, a universal antigen presenting cell was developed. Protein L is an immunoglobulin (Ig) light chain-binding protein expressed by some strains of the anaerobic bacterial species Peptostreptococcus magnus. […] As an alternative to expressing individual TAAs on aAPC, experiments were performed to determine if Protein L could activate CAR^+ T and SIR^+ T cells independent of specificity. In the initial experiments, coculture of Jurkat-NFAT-GFP cells expressing different CAR and SIR constructs were tested to determine whether Protein L magnetic beads would lead to induction of GFP expression. Pierce Protein L magnetic beads (cat. #88849; concentration 10 mg/ml) were purchased from ThermoFisher and diluted 1:10 in PBS. Approximately 10 μl of diluted beads were added per well in a U-bottom 96-well plate. […] CAR were added to the wells and cocultured with the beads for 18 hours. […]"}, "293-Protein L-II cells": {"tested_on": "293-Protein L-II cells", "assay": "Jurkat NFAT-GFP assay, coculture with 293-Protein L-II cells", "type": "cell-based, human", "details": "co-culture with 293-Protein L-II cells approximately 18 hours", "description": "Generation of human aAPC expressing Protein L on cell surface. Lentiviral chimeric antigen receptor (CAR) constructs were generated expressing different regions of Protein L in fusion with hinge and transmembrane regions of human CD8, 41BB costimulatory domain and CD3z chain. The nucleotide sequence of Protein L was codon optimized for optimal expression in human cells. It needs to be noted that the 41BB costimulatory domain and CD3z chain are not essential for the function of Protein L for the purpose of this invention. The vectors also carried N-terminal signal peptides derived from either human CD8 or IgH to allow cell surface transport of Protein L. The complete nucleic acid and amino acid sequence of the vectors are provided in SEQ ID NO: 888 and SEQ ID NO: 889.\nNext, 293 cells were infected with a lentivirus vector encoding the Protein L-II construct (072716-K01) and polyclonal population of cells stably expressing Protein L were generated following selection with 750 ng/ml puromycin. […] SIR constructs. […] The use of Protein-L expressing aAPC is, however, not limited to above type of cells. These cells can serve as universal aAPC for any immune effector cell which carries an antigen binding domain derived from a suitable κ chain containing antibody that can bind to Protein L."}, "RAJI cells [2]": {"tested_on": "RAJI cells", "assay": "Jurkat NFAT-GFP assay, coculture with RAJI cells", "type": "cell-based, human", "details": "SIR/CAR-expressing Jurkat-NFAT-GFP cells cocultured with RAJI cells", "procedure": "(B) Induction of NFAT promoter driven GFP expression. The control vector- and SIR-expressing Jurkat-NFAT-GFP cocultured for 4-24 hours with the target antigen-expressing cell line (described above) and their ability to bind to the target antigen is assayed by measuring induction of GFP expression using Flow Cytometry. Cellular supernatant is collected and assayed for the induction of cytokines (e.g., IL2).\nJurkat NFAT-GFP Assay For Synthetic Immune Receptors. The Jurkat-NFAT-GFP cells are engineered in such a way that the IL-2 promoter, which carries NFAT binding sites, is cloned upstream of the GFP gene. These cells have been used to study signaling via TCR and CAR. […]\nInduction of GFP expression by coculturing of Jurkat-NFAT-GFP cells expressing different SIR constructs and the different target cells was studied essentially as described previously (Wu, Roybal, Puchner, Onuffer, & Lim, 2015). GFP expression was monitored by FACS analysis. […] The names of different SIRs, their SEQ ID NOs, component antigen binding domains and TCR chains can be determined by reference to Tables 7A-7H. […] The signs +/−, +, 2+ etc. after the name of the cell lines indicate the relative degree of positivity on the Jurkat-NFAT-GFP assay as measured by the % GFP positive cells after culture of the SIR expressing Jurkat-NFAT-GFP cells with that cell line."}}}
{"compound": "Cc1sc2c(c1C)C(c1ccc(Cl)cc1)=N[C@@H](CC(=O)OC(C)(C)C)c1nnc(C)n1-2", "note": "[JQ1(+), reference compound]", "values": [{"measurement": "persistence of SIR-T cells and survival vs vehicle (in words)", "setting": "RAJI cells [1]; 50 mg/kg twice daily intra-peritoneal, mice receiving SEQ ID NO: 1200 SIR-T cells", "value": "longer persistence of SIR-T cells and survive longer"}]}
{"compound": "COc1ccc(-c2cc3c(C)nc(N)nc3n([C@H]3CC[C@H](OCCO)CC3)c2=O)cn1", "note": "[PF-04691502, reference compound]", "values": [{"measurement": "median survival of mice given SIR-T cells expanded in presence vs absence of the inhibitor (in words)", "setting": "RAJI cells [1]; SIR-T (SEQ ID NO:900) expanded with 0.10 μM to 0.5 μM", "value": "higher"}]}
{"compound": "CD8SP-FMC63(vL-vH)-Myc-BBz-T2A-PAC [SEQ ID NO:4501, reference compound]", "values": [{"measurement": "induction of GFP expression (in words)", "setting": "Protein L magnetic beads", "value": "modest induction of GFP expression"}, {"measurement": "induction of GFP expression (in words)", "setting": "293-Protein L-II cells", "value": "strong induction of GFP expression"}]}
{"compound": "pSBbi-puro-FMC63vL-V5-[TCRb-KACIAH]-F-P2A-FMC63vH-MYC-[TCRa-CSDVP]-F-F2A [SEQ ID NO:875]", "values": [{"measurement": "induction of GFP expression / NFAT signaling (in words)", "setting": "RAJI cells [2]", "value": "showed GFP induction"}]}
